# From US12691068B2, “Modular lipid compounds and two- to three-component lipid nanoparticle compositions” (SunVax mRNA Therapeutics Inc., priority 2022, dated 2026)
# Tested on: HEK293T cells
# Assay: In vitro transfection efficiency of LNPs encapsulating SamRNA-GFP in HEK293T cells (flow cytometry)
# Type: cell-based
# Conditions: modular lipid/DOPE/DMG-PEG2000 40/10/2 mole ratio, 100 ng RNA, 24 hours
# Description: The modular lipids of the disclosure were mixed with at least one of ionizable lipid, DOPE, cholesterol (Chol), and/or DMG-PEG2000 in ethanol at a predetermined molar ratio. Ionizable lipid: SamRNA molar ratio of 6:1 was used to prepare an organic phase. SamRNA-LUC or SamRNA-GFP was diluted in 50 mM citrate buffer (pH 4.5, Fisher) or PBS (pH 7.4, Fisher) to prepare an aqueous phase. The SamRNA was stored at −80° C. and was thawed on ice prior to use. The ethanol and aqueous phases were mixed at a 1:3 ratio by pipette. The resultant LNPs were purified by ultrafiltration (100,000 cut-off, MilliporeSigma™ Amicon™ Ultra-15 Centrifugal Filter Units) at 4° C. prior to injection.
# LNPs containing SamRNA-GFP or SamRNA-LUC were added into 96-well plate at 100 ng/well pre-seeded with HEK293, C2C12 or MC38 cells. After a 24 hour incubation at 37° C. and 5% CO2, the SamRNA-LUC transfection efficiency was measured by plate reader (Perkin Elmer Envision 2104) and GFP SamRNA transfection efficiency was measured by flow cytometry (BD FACSymphony™ A5 SE Cell Analyzer).
# The transfection efficacy of LNPs formulated using modular lipids P161F5, P161F6 or P161F10; DOPE and DMG-PEG2000 (modular lipid/DOPE/DMG-PEG2000, 40/10/2 mole ratio) encapsulating LNP-SamRNA-GFP were studied using HEK293T cells in 96-well plates. […]
row,Structure (SMILES),transfection efficiencies compared with four-component LNPs containing MC3 and SM102
1,"CCCCCCCCCCCCC(CCCCCCCCCC)CN(C(=O)CCC(C)C1CCC2C3CC(O)C4CC(O)CCC4(C)C3CCC12C)C(C(=O)NC12CC3CC(CC(C3)C1)C2)C1CCN(CC)CC1 (centres unmarked) [P161F6, N-(2-(((1s,3s)-adamantan-1-yl)amino)-1-(1-ethylpiperidin-4-yl)-2-oxoethyl)-N-(2-decyltetradecyl)-4-(3,6-dihydroxy-10,13-dimethylhexadecahydro-1H-cyclopenta[a]phenanthren-17-yl) pentanamide]",comparable or higher
2,"CCCCCCCCCCC(CCCCCCCC)CN(C(=O)CCC(C)C1CCC2C3CC(O)C4CC(O)CCC4(C)C3CCC12C)C(CC1CCN(C)CC1)C(=O)NC12CC3CC(CC(C3)C1)C2 (centres unmarked) [P161F10, N-(1-(((1s,3s)-adamantan-1-yl)amino)-3-(1-methylpiperidin-4-yl)-1-oxopropan-2-yl)-4-(3,6-dihydroxy-10,13-dimethylhexadecahydro-1H-cyclopenta[a]phenanthren-17-yl)-N-(2-octyldodecyl)pentanamide]",comparable or higher
